# Laboratory results reported in article PMC5522267, “Targeting PEPT1: a novel strategy to improve the antitumor efficacy of doxorubicin in human hepatocellular carcinoma therapy” (Oncotarget, 2017).
# Counter-ions that a name gives are not always drawn. Like-named read-outs stand apart in the source and are kept apart here. Marks after values point to notes of the source that are not given here.
# Legend:
# PEPT1 = molecular target: T1, PEPT1 (Homo sapiens, UniProt P46059); experiment: Uptake, dynamic and competitive inhibition test; format: cell-based; conditions: inhibitors 0.01 mg/ml preincubated 30 mins, then drug 1 h
# T1 construct: endogenous in cells; host or cells: Bel-7402, HepG2 (human HCC cells); Caco-2
# T1 sequence (P46059 1-708): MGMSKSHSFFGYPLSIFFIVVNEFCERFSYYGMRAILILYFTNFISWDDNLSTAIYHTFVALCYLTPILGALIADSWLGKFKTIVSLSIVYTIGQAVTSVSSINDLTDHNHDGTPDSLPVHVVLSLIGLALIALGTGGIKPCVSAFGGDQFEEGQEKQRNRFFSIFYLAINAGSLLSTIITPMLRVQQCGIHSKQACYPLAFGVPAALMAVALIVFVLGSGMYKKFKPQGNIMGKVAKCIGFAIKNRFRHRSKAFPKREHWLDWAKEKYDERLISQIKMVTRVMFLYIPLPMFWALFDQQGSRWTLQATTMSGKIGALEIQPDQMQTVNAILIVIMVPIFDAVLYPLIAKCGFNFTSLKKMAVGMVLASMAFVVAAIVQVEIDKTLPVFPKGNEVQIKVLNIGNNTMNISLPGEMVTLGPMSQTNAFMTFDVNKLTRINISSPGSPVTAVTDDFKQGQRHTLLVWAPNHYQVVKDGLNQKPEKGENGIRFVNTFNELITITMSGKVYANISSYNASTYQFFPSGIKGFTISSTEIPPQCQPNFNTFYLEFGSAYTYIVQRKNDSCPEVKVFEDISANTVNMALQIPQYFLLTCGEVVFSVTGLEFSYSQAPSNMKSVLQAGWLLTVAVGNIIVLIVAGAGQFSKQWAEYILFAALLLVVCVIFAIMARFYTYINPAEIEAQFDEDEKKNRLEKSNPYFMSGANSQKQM
# Experimental: The transport of Doxorubicin-tripeptide conjugate by PEPT1 was evaluated by time course, dynamic and competitive inhibition tests. The uptake study was performed on the confluent cell monolayer as described previously.
# The uptake buffer was HBSS buffer (0.952 mM CaCl2, 5.36 mM KCl, 0.441 mM KH2PO4, 0.812 mM MgSO4, 136.7 mM NaCl, 0.385 mM Na2HPO4, 25 mM D-glucose, and 10 mM HEPES) adjusted to pH 6.0. […] Then four different initial concentrations (0.025 mg/ml, 0.05 mg/ml, 0.10 mg/ml, 0.15 mg/ml) of Doxorubicin-tripeptide conjugate were incubated with HCC cell monolayer at pH 6.0 for 120 min. At last, 0.05 mg/ml Doxorubicin-tripeptide conjugate was fed to HCC cells at different pH uptake buffer (5.4, 6, 7.4 and 8.4) for 120 min. Inhibition tests were conducted by preincubating the cells with competitive compounds Gly-Sar, Gly-Gln, Gly-Gly-Gly (0.01 mg/ml) respectively for 30 mins and then incubated with Doxorubicin-tripeptide conjugate (0.05 mg/ml) for 1 h. After removing the buffer and rapidly washing 3 times with ice-cold PBS, the cellular uptake was specifically examined with a Multi-Mode Reader (BioTek, Synergy 2, USA) with Excitation 485/20 and Emission 590/35.
# [1] = Blood routine, HepG2 HCC mice; format: in vivo, nude mice; conditions: low dose, after treatment
# Caco2 = experiment: Drug concentration in tumor cells by HPLC, Caco2; format: cell-based, human; conditions: incubated 2 hours
# [2] = Cardiac indexes, HepG2 HCC mice; format: in vivo, nude mice; conditions: low dose, after treatment
# Bel-7402 = experiment: Drug concentration in tumor cells by HPLC, Bel-7402; format: cell-based, human; conditions: incubated 2 hours
# Experimental: When the density of HCC cells reached to 3 × 10^6/ml, they were trypsinized and centrifuge (4°C, 800rpm, 5min), then discarded the supernatant, dropping medium 3 ml and evenly mixed. Cell suspension was divided into three groups (control group, Doxorubicin-tripeptide conjugate group and Doxorubicin group). The drug concentration was 0.01 mg/ml for cultured 2 hours avoiding light. Then the cells obtained by centrifugation were proceeded by the following steps: washed 3 times with 1 ml normal saline, added 0.5 ml ultra pure water (Millipore), broken by ultrasonic wave, drooped in acetonitrile (Tianjin Concord Technology Co. Ltd, China) 0.5 ml, mixed, ultrasonic oscillation for 10 mins, centrifuge (1200 rpm, 15 min), take the supernatant, filtration with filter membrane, take 20 μl for HPLC analysis (Agilent 1100 HPLC system, USA).
# Chromatographic conditions were as follows: chromatographic column: DIONEX Acclaim 120 C18 (2.1 × 250 mm, 5 μm 120A), Mobile phase: Acetonitrile-0.2%NaH2PO4 aqueous solution (35: 65), Velocity: 0.35 ml/min, column temperature: 30°C, DAD, 254 nm, sample size: 20 μl. […] According to the chromatographic condition, the retention time (tR), peak position time, chromatographic behavior, resolution (R), the minimum detectable concentration and the intracellular drug concentration of these two drugs were detected in turn.
# HepG2 HCC = test system: HepG2 HCC
# Description: (§1) An animal model of HCC cells (Bel-7402, HepG2) transplanted into nude mice was established according to the method described in ref. 10.
# Bel-7402 HCC = conditions: for Inhibition rate: from tumor weight vs control
# Description: as §1
# [3] = Cardiac indexes, Bel-7402 HCC mice; format: in vivo, nude mice; conditions: high dose, after treatment
smiles,measurement,setting,value
"COc1cccc2c1C(=O)c1c(O)c3c(c(O)c1C2=O)C[C@@](O)(C(=O)CO)C[C@@H]3O[C@H]1C[C@H](N)[C@H](O)[C@H](C)O1 [Doxorubicin, Doxorubicin hydrochloride]","uptake in presence of inhibitors Gly-Sar, Gly-Gln or Gly-Gly-Gly",PEPT1,not
same,PLT,[1],72.53 ± 25.46 ^a ×10^9/l
same,RBC,[1],7.55 ± 1.33 ×10^12/l
same,WBC,[1],4.90 ± 3.60 ×10^9/l
same,drug concentration in tumor cells,Caco2,2730 ± 40 ng/mL
same,AST,[2],989.25 ± 145.74 U/L
same,CK,[2],1160.50 ± 164.82 U/L
same,CK-Mb,[2],797.00 ± 155.90^a U/L
same,GSH-PX,[2],515.57 ± 146.57^a U
same,LDH,[2],6958.50 ± 991.50 U/L
same,MDA,[2],3.97 ± 0.50 nmol/mg
same,SOD,[2],135.63 ± 16.22^a U/mg
same,drug concentration in tumor cells,Bel-7402,2420 ± 30 ng/mL
same,median survival time,"HepG2 HCC; HepG2, low dose group",26.5 days
same,deaths during treatment,"HepG2 HCC; HepG2, low dose group, 5W",3 deaths and 1 death respectively in the treatment of 3W+ and 4W+
same,"Tumor volume, Before treatment","HepG2 HCC; HepG2 HCC mice, baseline",0.32 ± 0.30 cm^2
same,"Tumor volume (third column, no sub-head; actual volume at end of experiment)","HepG2 HCC; HepG2 HCC mice, low dose",0.50 ± 0.46 cm^2
same,"Tumor volume, After treatment","HepG2 HCC; HepG2 HCC mice, low dose: Doxorubicin 40 mg/m^2, conjugate 200 mg/m^2",0.64 ± 0.61 cm^2
same,Tumor weight,"HepG2 HCC; HepG2 HCC mice, low dose, end of treatment",1.66 ± 0.98 g
same,"Mice weight, Before treatment","HepG2 HCC; mouse, in vivo",21.23 ± 4.97 g
same,median survival time,"Bel-7402 HCC; Bel-7402, high dose group",25.5 days
same,deaths during treatment,"Bel-7402 HCC; Bel-7402, high dose group, 5W","1 death and 2 deaths and 1 death in the treatment of 2W+, 3W+ and 4W+ respectively"
same,"Tumor volume, Before treatment","Bel-7402 HCC; Bel-7402 HCC mice, baseline",0.38 ± 0.28 cm^2
same,"Tumor volume (third column, no sub-head; actual volume at end of experiment)","Bel-7402 HCC; Bel-7402 HCC mice, high dose",0.27 ± 0.16 cm^2
same,"Tumor volume, After treatment","Bel-7402 HCC; Bel-7402 HCC mice, high dose: Doxorubicin 60 mg/m^2, conjugate 300 mg/m^2",0.42 ± 0.33 cm^2
same,Tumor weight,"Bel-7402 HCC; Bel-7402 HCC mice, high dose, end of treatment",1.30 ± 0.41 g
same,Inhibition rate,"Bel-7402 HCC; Bel-7402 HCC mice, high dose",32.35%
same,Inhibition rate,"Bel-7402 HCC; Bel-7402 HCC mice, high dose, listed as C",32.35^c %
same,"Mice weight, Before treatment","Bel-7402 HCC; mouse, in vivo",23.15 ± 1.60 g
same,AST,[3],1400.83 ± 506.35^a U/L
same,CK,[3],1357.83 ± 504.33^ac U/L
same,CK-Mb,[3],823.17 ± 342.53 U/L
same,GSH-PX,[3],462.36 ± 100.90^a U
same,LDH,[3],5811.67 ± 3290.44 U/L
same,MDA,[3],3.43 ± 0.35^a nmol/mg
same,SOD,[3],151.60 ± 18.08^a U/mg
